# Patent publication EP1517674B1, “PREPARATIONS FOR THE INTRANASAL APPLICATION OF SELECTED CGRP A[…] FROM AMINO ACIDS AND A METHOD FOR THEIR PRODUCTION” (Boehringer Ingelheim Pharma GmbH & Co. KG, priority 2002, dated 2003)
# Assay: Stability test of higher-concentration nasal spray solutions (hydrochloride in aqueous solution, packed in aluminium pouch)
# Format: physicochemical
# Conditions: for Gehalt an Wirkstoff (A): as free base
# Protocol: Stabilitätsprüfung höher konzentrierter erfindungsgemäßer Nasalspray-Lösungen:
# Die nachfolgende Tabelle zeigt, dass die oxidative Zersetzung des nachstehend aufgeführten Wirkstoffs
# Die zum Teil (insbesondere bei 40°C) hohe Gesamtzersetzung beruht auf Hydrolyse.
# Der in der Tabelle 1 angegebene Gehalt an Wirkstoff (A) bezieht sich jeweils auf die ursprünglich eingewogene freie Base.
# [1] = Wirkstoff-Konzentration 15 %, 3-Monats-Wert, 25°C, 129600 min
# [2] = Wirkstoff-Konzentration 15 %, 3-Monats-Wert, 40°C, 129600 min
# [3] = Wirkstoff-Konzentration 15 %, 6-Monats-Wert, 25°C, 259200 min
# [4] = Wirkstoff-Konzentration 15 %, 6-Monats-Wert, 40°C, 259200 min
# [5] = Wirkstoff-Konzentration 15 %, 6-Wochen-Wert, 25°C, 60480 min
# [6] = Wirkstoff-Konzentration 15 %, 6-Wochen-Wert, 40°C, 60480 min
# [7] = Wirkstoff-Konzentration 15 %, Anfangswert
# [8] = Wirkstoff-Konzentration 20 %, 3-Monats-Wert, 25°C, 129600 min
# [9] = Wirkstoff-Konzentration 20 %, 3-Monats-Wert, 40°C, 129600 min
# [10] = Wirkstoff-Konzentration 20 %, 6-Monats-Wert, 25°C, 259200 min
# [11] = Wirkstoff-Konzentration 20 %, 6-Monats-Wert, 40°C, 259200 min
# [12] = Wirkstoff-Konzentration 20 %, 6-Wochen-Wert, 25°C, 60480 min
# [13] = Wirkstoff-Konzentration 20 %, 6-Wochen-Wert, 40°C, 60480 min
# [14] = Wirkstoff-Konzentration 20 %, Anfangswert
# [15] = Wirkstoff-Konzentration 30 %, 3-Monats-Wert, 25°C, 129600 min
# [16] = Wirkstoff-Konzentration 30 %, 3-Monats-Wert, 40°C, 129600 min
# [17] = Wirkstoff-Konzentration 30 %, 6-Monats-Wert, 25°C, 259200 min
# [18] = Wirkstoff-Konzentration 30 %, 6-Monats-Wert, 40°C, 259200 min
# [19] = Wirkstoff-Konzentration 30 %, 6-Wochen-Wert, 25°C, 60480 min
# [20] = Wirkstoff-Konzentration 30 %, 6-Wochen-Wert, 40°C, 60480 min
# [21] = Wirkstoff-Konzentration 30 %, Anfangswert
smiles,measurement,setting,value
"NCCCC[C@H](NC(=O)[C@@H](Cc1cc(Br)c(O)c(Br)c1)NC(=O)N1CCC(N2Cc3ccccc3NC2=O)CC1)C(=O)N1CCN(c2ccncc2)CC1 [(A), 1-[N^2-[3,5-Dibrom-N-[[4-(3,4-dihydro-2(1 H)-oxochinazolin-3-yl)-1-piperidinyl]-carbonyl]-D-tyrosyl]-L-lysyl]-4-(4-pyridinyl)-piperazin]",Gesamt-Zersetzung,[1],"1,69%"
same,Zersetzung durch Oxidation,[1],"0,64%"
same,Gehalt an Wirkstoff (A),"Wirkstoff-Konzentration 15 %, 3-Monats-Wert, 25°C","147,7mg/ml"
same,Gesamt-Zersetzung,[2],"8,22%"
same,Zersetzung durch Oxidation,[2],"0,55%"
same,Gehalt an Wirkstoff (A),"Wirkstoff-Konzentration 15 %, 3-Monats-Wert, 40°C","139,4mg/ml"
same,Gesamt-Zersetzung,[3],"2,07%"
same,Zersetzung durch Oxidation,[3],"0,82%"
same,Gehalt an Wirkstoff (A),"Wirkstoff-Konzentration 15 %, 6-Monats-Wert, 25°C","147,7mg/ml"
same,Gesamt-Zersetzung,[4],15.33%
same,Zersetzung durch Oxidation,[4],"0,78%"
same,Gehalt an Wirkstoff (A),"Wirkstoff-Konzentration 15 %, 6-Monats-Wert, 40°C","131,7mg/ml"
same,Gesamt-Zersetzung,[5],"1,60%"
same,Zersetzung durch Oxidation,[5],"0,72%"
same,Gehalt an Wirkstoff (A),"Wirkstoff-Konzentration 15 %, 6-Wochen-Wert, 25°C","148,1mg/ml"
same,Gesamt-Zersetzung,[6],"4,46%"
same,Zersetzung durch Oxidation,[6],"0,52%"
same,Gehalt an Wirkstoff (A),"Wirkstoff-Konzentration 15 %, 6-Wochen-Wert, 40°C","142,3mg/ml"
same,Gesamt-Zersetzung,[7],"1,23%"
same,Zersetzung durch Oxidation,[7],"0,59%"
same,Gehalt an Wirkstoff (A),[7],"148,6mg/ml"
same,Gesamt-Zersetzung,[8],"1,50%"
same,Zersetzung durch Oxidation,[8],"0,53%"
same,Gehalt an Wirkstoff (A),"Wirkstoff-Konzentration 20 %, 3-Monats-Wert, 25°C","202,8mg/ml"
same,Gesamt-Zersetzung,[9],"8,23%"
same,Zersetzung durch Oxidation,[9],"0,47%"
same,Gehalt an Wirkstoff (A),"Wirkstoff-Konzentration 20 %, 3-Monats-Wert, 40°C","191,4mg/ml"
same,Gesamt-Zersetzung,[10],"1,99%"
same,Zersetzung durch Oxidation,[10],"0,77%"
same,Gehalt an Wirkstoff (A),"Wirkstoff-Konzentration 20 %, 6-Monats-Wert, 25°C","201,8m/ml"
same,Gesamt-Zersetzung,[11],"14,61%"
same,Zersetzung durch Oxidation,[11],"0,74%"
same,Gehalt an Wirkstoff (A),"Wirkstoff-Konzentration 20 %, 6-Monats-Wert, 40°C","182,8mg/ml"
same,Gesamt-Zersetzung,[12],"1,09%"
same,Zersetzung durch Oxidation,[12],"0,54%"
same,Gehalt an Wirkstoff (A),"Wirkstoff-Konzentration 20 %, 6-Wochen-Wert, 25°C","198,7mg/ml"
same,Gesamt-Zersetzung,[13],"3,97%"
same,Zersetzung durch Oxidation,[13],"0,55%"
same,Gehalt an Wirkstoff (A),"Wirkstoff-Konzentration 20 %, 6-Wochen-Wert, 40°C","192,1mg/ml"
same,Gesamt-Zersetzung,[14],"1,27%"
same,Zersetzung durch Oxidation,[14],"0,56%"
same,Gehalt an Wirkstoff (A),[14],"197,9mg/ml"
same,Gesamt-Zersetzung,[15],"1,48%"
same,Zersetzung durch Oxidation,[15],"0,60%"
same,Gehalt an Wirkstoff (A),"Wirkstoff-Konzentration 30 %, 3-Monats-Wert, 25°C",270 mg/mL
same,Gesamt-Zersetzung,[16],7.81%
same,Zersetzung durch Oxidation,[16],"0,59%"
same,Gehalt an Wirkstoff (A),"Wirkstoff-Konzentration 30 %, 3-Monats-Wert, 40°C",260 mg/mL
same,Gesamt-Zersetzung,[17],"2,04%"
same,Zersetzung durch Oxidation,[17],"0,91%"
same,Gehalt an Wirkstoff (A),"Wirkstoff-Konzentration 30 %, 6-Monats-Wert, 25°C",273 mg/mL
same,Gesamt-Zersetzung,[18],"13,36%"
same,Zersetzung durch Oxidation,[18],"0,84%"
same,Gehalt an Wirkstoff (A),"Wirkstoff-Konzentration 30 %, 6-Monats-Wert, 40°C",246 mg/mL
same,Gesamt-Zersetzung,[19],"1,19%"
same,Zersetzung durch Oxidation,[19],"0,62%"
same,Gehalt an Wirkstoff (A),"Wirkstoff-Konzentration 30 %, 6-Wochen-Wert, 25°C",264 mg/mL
same,Gesamt-Zersetzung,[20],"3,95%"
same,Zersetzung durch Oxidation,[20],"0,58%"
same,Gehalt an Wirkstoff (A),"Wirkstoff-Konzentration 30 %, 6-Wochen-Wert, 40°C",260 mg/mL
same,Gesamt-Zersetzung,[21],"1,20%"
same,Zersetzung durch Oxidation,[21],"0,56%"
same,Gehalt an Wirkstoff (A),[21],269 mg/mL
same,oxidative Zersetzung,"hydrochloride in aqueous solution, over a long period",praktisch unverändert
